Data set [1] deals with Vascular endothelial growth factor receptor 2 (Homo sapiens) (UniProt P35968). In words: Inhibition of His-tagged human VEGFR2 at 40 uM incubated for 1 hr by HTRF assay.
In data set [2] the test system is MCF7. The experiment in a line: Induction of cell cycle arrest in human MCF7 cells assessed as accumulation at G0/G1 phase at 6 uM incubated for 24 hrs by propidium iodide staining flow cytometry (reference value: 48.52%). The format is functional.
Data set [3] concerns MCF7. In words: Induction of cell cycle arrest in human MCF7 cells assessed as accumulation at S phase at 6 uM incubated for 24 hrs by propidium iodide staining flow cytometry (reference value: 24.64%). The format is functional.
Data set [4] has as its system MCF7. In words: Induction of cell cycle arrest in human MCF7 cells assessed as reduction in accumulation at S phase incubated for 24 hrs by propidium iodide staining flow cytometry. The format is functional, cell-based.
The next data set relates to HUVEC. The experiment in a line: Antiangiogenic activity against HUVEC incubated for 48 hrs by MTT assay. The data set is classed as functional, cell-based. The following applies: Homo sapiens.
In data set [5] the test system is MCF7. The experiment in a line: Induction of cell cycle arrest in human MCF7 cells assessed as accumulation at G2/M phase at 6 uM incubated for 24 hrs by propidium iodide staining flow cytometry (reference value: 26.84%). The format is functional.
Data set [6] relates to MCF7. In words: Induction of cell cycle arrest in human MCF7 cells assessed as accumulation at G0/G1 phase at 2 uM incubated for 24 hrs by propidium iodide staining flow cytometry (reference value: 48.52%). The format is functional.
The test system of data set [7] is MCF7. The experiment in a line: Induction of cell cycle arrest in human MCF7 cells assessed as accumulation at G0/G1 phase incubated for 24 hrs by propidium iodide staining flow cytometry. The data set is classed as functional, cell-based.
In data set [8] the test system is MCF7. In words: Induction of cell cycle arrest in human MCF7 cells assessed as accumulation at G2/M phase at 2 uM incubated for 24 hrs by propidium iodide staining flow cytometry (reference value: 26.84%). The data set is classed as functional.
For data set [9], the system named is MCF7. The experiment in a line: Effect on total ERK1/2 protein level in human MCF7 cells at 2 to 4 uM incubated for 24 hrs by Western blot method. The format is ADME, cell-based. The settings on record: mcf7, 24 h.
Another data set concerns Ishikawa. The experiment in a line: cells. The following applies: Homo sapiens, 48 h.
Data set [10] has as its system MCF7. The experiment in a line: Effect on total Raf1 protein level in human MCF7 cells at 2 to 4 uM incubated for 24 hrs by Western blot method. The format is ADME, cell-based. The following applies: mcf7, 24 h.
In data set [11] the test system is MCF7. In words: cells. The following applies: Homo sapiens, MCF7, 48 h.
Description: Cytotoxicity in human MCF7 cells assessed as inhibition of cell growth incubated for 48 hrs by MTT assay
Data set [12] deals with MCF7. The experiment in a line: Induction of cell cycle arrest in human MCF7 cells assessed as accumulation at G2/M phase at 4 uM incubated for 24 hrs by propidium iodide staining flow cytometry (reference value: 26.84%). The format is functional.
Data set [13] concerns the target Vascular endothelial growth factor receptor 2 (Homo sapiens) (UniProt P35968). The experiment in a line: Inhibition of VEGFR2 phosphorylation in human MCF7 cells at 2 uM incubated for 24 hrs by Western blot method relative to sunitinib. The format is cell-based.
The subject of data set [14] is MCF7. In words: Induction of cell cycle arrest in human MCF7 cells assessed as accumulation at S phase at 2 uM incubated for 24 hrs by propidium iodide staining flow cytometry (reference value: 24.64%). The data set is classed as functional.
Data set [15] has as its target Vascular endothelial growth factor receptor 2 (Homo sapiens) (UniProt P35968). The experiment in a line: Inhibition of VEGFR2 phosphorylation in human MCF7 cells incubated for 24 hrs by Western blot method. The data set is classed as cell-based.
The target of another data set is T1, Estrogen receptor (Homo sapiens, UniProt P03372).
T1 sequence (P03372 whole entry): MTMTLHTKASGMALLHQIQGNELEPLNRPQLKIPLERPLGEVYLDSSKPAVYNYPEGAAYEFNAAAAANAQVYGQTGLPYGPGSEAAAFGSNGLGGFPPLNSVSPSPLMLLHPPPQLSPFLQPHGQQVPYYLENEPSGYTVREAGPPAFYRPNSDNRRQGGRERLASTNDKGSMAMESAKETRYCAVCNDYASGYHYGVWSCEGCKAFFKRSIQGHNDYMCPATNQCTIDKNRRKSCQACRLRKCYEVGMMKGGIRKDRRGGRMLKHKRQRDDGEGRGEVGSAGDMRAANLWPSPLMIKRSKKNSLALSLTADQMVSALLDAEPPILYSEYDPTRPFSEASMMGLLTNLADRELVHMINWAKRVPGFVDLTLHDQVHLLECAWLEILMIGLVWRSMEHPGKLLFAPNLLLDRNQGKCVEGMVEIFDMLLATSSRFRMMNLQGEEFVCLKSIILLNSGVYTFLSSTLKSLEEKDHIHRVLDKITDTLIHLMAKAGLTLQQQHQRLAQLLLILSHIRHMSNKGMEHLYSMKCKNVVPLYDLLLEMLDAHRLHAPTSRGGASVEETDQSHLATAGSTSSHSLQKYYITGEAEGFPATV
The experiment in a line: Displacement of fluorescent estrogen ligand from recombinant human ERalpha expressed in insect cells incubated for 2 hrs by polarization.

In data set [16] the test system is MCF7. The experiment in a line: Induction of cell cycle arrest in human MCF7 cells assessed as accumulation at S phase at 4 uM incubated for 24 hrs by propidium iodide staining flow cytometry (reference value: 24.64%). The format is functional.
The target in data set [17] is Vascular endothelial growth factor receptor 2 (Homo sapiens) (UniProt P35968). The experiment in a line: Inhibition of VEGFR2 in human MCF7 cells assessed as reduction in p-ERK1/2 protein level incubated for 24 hrs by Western blot method. The data set is classed as cell-based.
Data set [18] relates to MCF7. In words: Induction of cell cycle arrest in human MCF7 cells assessed as accumulation at G0/G1 phase at 4 uM incubated for 24 hrs by propidium iodide staining flow cytometry (reference value: 48.52%). The format is functional.
The target in data set [19] is Vascular endothelial growth factor receptor 2 (Homo sapiens) (UniProt P35968). The experiment in a line: Inhibition of VEGFR2 in human MCF7 cells assessed as reduction in p-Raf1 protein level incubated for 24 hrs by Western blot method. The format is cell-based.
The subject of data set [20] is MCF7. In words: Induction of cell cycle arrest in human MCF7 cells assessed as reduction in accumulation at G2/M phase incubated for 24 hrs by propidium iodide staining flow cytometry. The format is functional, cell-based.

SMILES strings stand for the structures. Calls of active or inactive are those of the source. The rule behind the calls is not given here.

Sequence of Vascular endothelial growth factor receptor 2 (Homo sapiens) (P35968 whole entry): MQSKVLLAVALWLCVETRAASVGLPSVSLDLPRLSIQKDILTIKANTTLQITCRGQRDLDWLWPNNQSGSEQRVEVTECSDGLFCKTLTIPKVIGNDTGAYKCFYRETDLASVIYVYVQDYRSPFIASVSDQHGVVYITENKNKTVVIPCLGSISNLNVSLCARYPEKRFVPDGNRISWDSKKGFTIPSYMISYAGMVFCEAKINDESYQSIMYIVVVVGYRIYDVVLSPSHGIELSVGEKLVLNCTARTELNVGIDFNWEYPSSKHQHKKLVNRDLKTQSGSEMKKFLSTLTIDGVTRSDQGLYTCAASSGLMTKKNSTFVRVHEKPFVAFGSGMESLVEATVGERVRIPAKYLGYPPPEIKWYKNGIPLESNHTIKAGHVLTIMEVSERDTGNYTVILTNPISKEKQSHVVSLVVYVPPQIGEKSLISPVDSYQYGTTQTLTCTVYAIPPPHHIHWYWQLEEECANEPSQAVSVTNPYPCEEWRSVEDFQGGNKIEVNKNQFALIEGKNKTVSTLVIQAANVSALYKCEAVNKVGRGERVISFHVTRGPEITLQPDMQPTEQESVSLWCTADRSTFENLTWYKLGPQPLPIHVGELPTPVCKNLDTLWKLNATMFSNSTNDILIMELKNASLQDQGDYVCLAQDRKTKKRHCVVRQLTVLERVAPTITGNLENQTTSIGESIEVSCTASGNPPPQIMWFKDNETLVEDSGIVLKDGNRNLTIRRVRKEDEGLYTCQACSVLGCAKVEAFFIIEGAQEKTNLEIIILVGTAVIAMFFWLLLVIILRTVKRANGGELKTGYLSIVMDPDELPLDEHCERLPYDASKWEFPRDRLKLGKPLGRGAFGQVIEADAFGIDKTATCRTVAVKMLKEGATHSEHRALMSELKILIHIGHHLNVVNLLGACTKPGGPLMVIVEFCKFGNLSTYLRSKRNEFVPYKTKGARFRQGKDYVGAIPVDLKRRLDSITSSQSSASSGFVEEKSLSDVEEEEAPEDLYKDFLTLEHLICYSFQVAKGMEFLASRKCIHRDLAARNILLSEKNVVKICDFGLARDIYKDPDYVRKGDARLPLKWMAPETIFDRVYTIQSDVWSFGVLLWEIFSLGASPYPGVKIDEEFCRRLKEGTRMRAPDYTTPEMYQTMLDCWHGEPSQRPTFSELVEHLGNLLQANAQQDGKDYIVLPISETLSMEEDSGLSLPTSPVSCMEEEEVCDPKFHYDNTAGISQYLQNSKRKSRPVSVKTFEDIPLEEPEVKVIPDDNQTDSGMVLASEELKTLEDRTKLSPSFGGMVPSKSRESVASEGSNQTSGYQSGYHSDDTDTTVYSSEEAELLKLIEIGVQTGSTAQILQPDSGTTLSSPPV
Description for Ishikawa: Cytotoxicity in human Ishikawa cells assessed as inhibition of cell growth incubated for 48 hrs by MTT assay

`O=c1oc2cc(O)ccc2c(Oc2ccc(OCCN3CCCCC3)cc2)c1-c1ccc(F)cc1`: the inhibition in data set [1] was 82.9%; in data set [15], “Dose-dependent effect”; in [17] it was “Dose-dependent effect”; in [19], “Dose-dependent effect”. In addition, the Activity with MCF7 [2] is 75.46%; in the data set on MCF7 [3], 14.69%; in the data set with MCF7 [4], “Dose-dependent effect”; in the data set on MCF7 [5], 9.85%; with MCF7 [6] it was 60.67%; in the data set on MCF7 [7], “Dose-dependent effect”. The Activity in the data set on MCF7 [8] is recorded as 20.81%; with MCF7 [9], “Non-Toxic”; in the data set with MCF7 [10], “Non-Toxic”; in the data set with MCF7 [12] it was 16.22%; in the data set on MCF7 [14] it was 18.52%; with MCF7 [16], 18.41%. The Activity was 65.37% in the data set on MCF7 [18] and “Dose-dependent effect” with MCF7 [20]. Moreover, the IC50 came out at 15.7 µM in the data set with HUVEC, 11.1 µM with Ishikawa, 9.54 µM in the data set on MCF7 [11] and 2.19 µM at Estrogen receptor. The inhibition result in data set [13] was “Active”.

These data come from ChEMBL document CHEMBL4130448, “Novel SERMs based on 3-aryl-4-aryloxy-2H-chromen-2-one skeleton - A possible way to dual ERα/VEGFR-2 ligands for treatment of breast cancer” (Eur J Med Chem, 2017).
